Results from patent US11497751B2, “Modulators of Rho-associated protein kinase” (Redx Pharma PLC, priority 2018, dated 2022).
pIC50: −log10 of the molar value.

How the values were obtained:
[1] = molecular target: T1, N-terminal 6His-tagged ROCK2 catalytic domain 11-552 (Homo sapiens, UniProt O75116); assay: ROCK2 binding activity: ROCK2 inhibition, ADP-Glo Kinase Assay; assay type: biochemical; settings: 1.25 nM ROCK2, 100 μM long S6 peptide, 20 μM ATP; 1 hour pre-incubation; read-out: ADP-Glo kinase activity assay ROCK2 Category
T1 construct: N-terminal 6His-tagged ROCK2 catalytic domain 11-552; 6His (N); purchased Dundee University, UK; host or cells: baculovirus expression system
T1 sequence (O75116 11-552): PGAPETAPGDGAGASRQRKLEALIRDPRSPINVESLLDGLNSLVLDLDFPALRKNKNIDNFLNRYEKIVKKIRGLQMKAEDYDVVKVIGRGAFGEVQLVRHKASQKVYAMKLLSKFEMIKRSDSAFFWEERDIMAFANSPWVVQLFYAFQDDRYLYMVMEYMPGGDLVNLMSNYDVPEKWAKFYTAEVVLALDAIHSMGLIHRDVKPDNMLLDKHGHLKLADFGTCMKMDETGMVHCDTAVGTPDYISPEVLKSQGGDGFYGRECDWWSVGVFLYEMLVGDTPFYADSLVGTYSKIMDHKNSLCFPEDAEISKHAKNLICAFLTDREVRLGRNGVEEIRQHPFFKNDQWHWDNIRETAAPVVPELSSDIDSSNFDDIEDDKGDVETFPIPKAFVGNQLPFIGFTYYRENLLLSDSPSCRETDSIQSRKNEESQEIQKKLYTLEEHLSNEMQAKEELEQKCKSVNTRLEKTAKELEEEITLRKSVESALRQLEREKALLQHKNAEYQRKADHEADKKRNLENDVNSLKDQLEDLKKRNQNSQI
Outline: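 1.25 nM baculovirus-expressed ROCK2 pre-incubated 1 h with compound (1% DMSO), then 100 μM long S6 peptide and 20 μM ATP added for 1 h; 50 mM HEPES pH 7.5, 10 mM Mg acetate, 1 mM DTT. ADP-Glo luminescence; IC50 from four-parameter logistic fit.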

[2] = tested on: T cells; settings: oral administration of KD025, healthy human subjects, ex-vivo stimulation of T-cells; cited from earlier work

Structure (SMILES)	pIC50 [1]	reduction of the ability of T cells to secrete IL-17 [2] [%]	reduction of the ability of T cells to secrete IL-21 [2] [%]
C=C(C)c1c(Nc2nc(-c3ccc(C(=O)NCC(F)(F)F)cc3)nn2C)ccc2[nH]ncc12 [Example 458, 4-[5-[(4-isopropenyl-1H-indazol-5-yl)amino]-1-methyl-1,2,4-triazol-3-yl]-N-(2,2,2-trifluoroethyl)benzamide]	> 6.52		
C=C(C)c1c(Nc2nc(-c3ccc(C(=O)NCC)cc3)nn2C)ccc2[nH]ncc12 [Example 459, N-ethyl-4-[5-[(4-isopropenyl-1H-indazol-5-yl)amino]-1-methyl-1,2,4-triazol-3-yl]benzamide]	> 6.52		
CC(C)NC(=O)COc1ccc(-c2nc(Nc3ccc4[nH]ncc4c3)n(C)n2)cc1 [Example 470]	> 6.52		
CC(C)NC(=O)COc1ccc(-c2nc(Nc3ccc4[nH]ncc4c3Cl)n(C)n2)cc1 [Example 471]	> 6.52		
CC(C)NC(=O)COc1ccc(-c2nc(Nc3ccc4[nH]ncc4c3Cl)n(C)n2)cc1Cl [Example 472]	> 6.52		
CC(C)NC(=O)COc1ccc(-c2nc(Nc3ccc4[nH]ncc4c3)n(C)n2)cc1F [Example 473]	> 6.52		
CC(C)NC(=O)COc1ccc(-c2nc(Nc3ccc4[nH]ncc4c3Cl)n(C)n2)cc1F [Example 474]	> 6.52		
CC(C)NC(=O)COc1ccc(-c2nc(Nc3ccc4[nH]ncc4c3Cl)n(C)n2)c(C(F)(F)F)c1 [Example 475]	> 6.52		
CC(C)NC(=O)COc1cccc(-c2nc(Nc3ccc4[nH]ncc4c3)c3ccccc3n2)c1 [KD025]		60	90

Second part, led by results:

pIC50 [1]	Structure (SMILES)	reduction of the ability of T cells to secrete IL-17 [2] [%]	reduction of the ability of T cells to secrete IL-21 [2] [%]
> 6.52	COCCn1nc(-c2ccc(C(=O)NCC(F)(F)F)cc2)nc1Nc1ccc2[nH]ncc2c1C [Example 453]		
> 6.52	COCCn1nc(-c2ccc(C(=O)NCC(F)(F)F)c(C)c2)nc1Nc1ccc2[nH]ncc2c1C [Example 454]		
> 6.52	COc1cc(-c2nc(Nc3ccc4[nH]ncc4c3C)n(CC(C)C)n2)ccc1C(=O)NCC(F)(F)F [Example 455]		
> 6.52	COc1cc(-c2nc(Nc3ccc4[nH]ncc4c3C)n(C3CC3)n2)ccc1C(=O)NCC(F)(F)F [Example 456]		
> 6.52	CCn1nc(-c2ccc(C(=O)NCC(F)(F)F)c(OC)c2)nc1Nc1ccc2[nH]ncc2c1C [Example 457]		
